Measurements reported in patent US11248246B2, “Beta-glucosidase for producing glucose and laminarioligosaccharide from sea weed” (Korea University Research and Business Foundation, priority 2018, dated 2022).
“Also recorded” adds a separate entry of the source.

Columns and labels:
[1] = biological target: T1, Saccharophagus degradans 2-40^T β-glucosidase Bgl1B, recombinant (6 histidine residues at C-terminus), SEQ ID NO: 1 (nucleotide SEQ ID NO: 2) (Saccharophagus degradans, UniProt Q21KX3); assay: Enzymatic reaction rate of Bgl1B for various substrates (Lineweaver-Burk plot); type: biochemical; details: for Vmax / kcat: pH 6, 40° C., substrate 0.1-0.4% (w/v)
T1 sequence (Q21KX3 1-444): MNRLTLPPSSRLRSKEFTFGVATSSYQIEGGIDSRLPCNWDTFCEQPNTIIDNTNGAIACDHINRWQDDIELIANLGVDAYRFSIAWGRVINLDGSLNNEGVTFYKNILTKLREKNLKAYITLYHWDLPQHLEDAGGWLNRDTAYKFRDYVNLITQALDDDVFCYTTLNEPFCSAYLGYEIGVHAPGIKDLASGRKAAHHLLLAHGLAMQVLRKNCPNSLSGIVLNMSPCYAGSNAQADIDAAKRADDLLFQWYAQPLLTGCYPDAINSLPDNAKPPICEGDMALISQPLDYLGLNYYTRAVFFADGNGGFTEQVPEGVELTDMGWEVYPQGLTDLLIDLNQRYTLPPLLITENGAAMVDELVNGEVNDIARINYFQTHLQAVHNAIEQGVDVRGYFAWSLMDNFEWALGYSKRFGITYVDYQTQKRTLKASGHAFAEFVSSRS
Method: To obtain the genomic DNA of Saccharophagus degradans 2-40^T (ATCC43961), Saccharophagus degradans 2-40^T was cultured in a minimal medium containing 2.3 g of instant ocean sea salt, 20 mM Tris-HCl, 2 g of glucose, 1 g of yeast extract, and 0.5 g of ammonium chloride per 1 L at 30° C. for 12 hours. The genomic DNA was extracted using a commercial DNA isolation kit (Qiagen, Valencia, Calif., USA). The target gene bgl1B was amplified from the genomic DNA by PCR. […] To purify the protein by affinity chromatography, the nucleotide sequence of a gene encoding 6 histidine residues at the C-terminus was added. The PCR product and a pET21α vector were digested with NdeI and NotI, respectively, and ligated to construct a pET21α-Bgl1B plasmid. The plasmid was transformed into Escherichia coli DH5α.
To overexpress the obtained gene, the gene was transformed into a protein-expressing host, Escherichia coli B121 (DE3). The cells were cultured in a Luria-Bertani (LB) broth containing 50 mg/L of ampicillin at 37° C. until absorbance at 600 nm reached 0.6. To induce protein expression, 0.1 mM IPTG was added and the induction temperature was set at 16° C., and a protein was allowed to be overexpressed in a water-soluble form for 16 hours. After culture, centrifugation was performed to recover the cells, the cells were released using a 20 mM Tris-HCl buffer (pH 7.4), and then disrupted by ultrasonication and centrifuged again to obtain a supernatant. The recombinant protein was purified using a HisTrap column (GE Healthcare, Piscataway, USA). The purified protein was concentrated using an Amicon Ultra Centrifugal filter (30,000 molecular weight cut-off; Millipore, Billerica, Mass., USA), and the concentration of the protein was measured using a bicinchoninic acid (BCA) protein assay kit (Thermo Fisher Scientific, San Hose, Calif., USA).
(§1) To confirm the enzymatic reaction rate of the Bgl1B protein for various substrates, the Bgl1B protein was allowed to react with each substrate at various concentrations of 0.1-0.4% (w/v) at pH 6 and 40° C. Vmax, Km, and kcat, which are parameters related to an enzymatic reaction rate, were determined from the Lineweaver-Burk plot.

Bgl1B protein = assay: Effect of metal ions on the activity of the Bgl1B protein; type: biochemical, Saccharophagus degradans 2-40^T; details: for Relative enzymatic activity (%) / influence on enzymatic activity: 10 mM metal ion, 0.1% (w/v) cellobiose; for Relative enzymatic activity (%): relative to no metal ion
Novozyme 188 = assay: Enzymatic reaction rate of commercialized enzyme Novozyme 188 for substrates (comparison); type: biochemical; details: pH 6, 40° C. (as for Bgl1B)
Method: as §1

[2] = substrate: OC[C@H]1O[C@@H](O[C@H]2[C@H](O)[C@@H](O)C(O)O[C@@H]2CO)[C@H](O)[C@@H](O)[C@@H]1O; assay: purified protein, by the assay type; details: other: pH 6, 40° C., substrate 0.1-0.4% (w/v)
[3] = substrate: OC[C@H]1O[C@@H](OC[C@H]2OC(O)[C@H](O)[C@@H](O)[C@@H]2O)[C@H](O)[C@@H](O)[C@@H]1O; assay: purified protein, by the assay type; details: other: pH 6, 40° C., substrate 0.1-0.4% (w/v)
[4] = substrate: OC[C@H]1O[C@@H](O[C@H]2[C@H]3OC[C@@H]2OC(O)[C@H]3O)[C@H](O)[C@@H](O)[C@H]1O; assay: purified protein, by the assay type; details: other: pH 6, 40° C., substrate 0.1-0.4% (w/v)
[5] = substrate: OC[C@H]1O[C@@H](O[C@H]2[C@H](O)[C@@H](CO)OC(O)[C@@H]2O)[C@H](O)[C@@H](O)[C@@H]1O; assay: purified protein, by the assay type; details: other: pH 6, 40° C., substrate 0.1-0.4% (w/v)
[6] = substrate: OC[C@H]1O[C@@H](O[C@H]2[C@H](O)[C@@H](O)C(O)O[C@@H]2CO)[C@H](O)[C@@H](O)[C@H]1O; assay: purified protein, by the assay type; details: other: pH 6, 40° C., substrate 0.1-0.4% (w/v)

OC[C@H]1O[C@@H](O[C@H]2[C@H]3OC[C@@H]2OC(O)[C@H]3O)[C@H](O)[C@@H](O)[C@H]1O (some centres unmarked) [Agarobiose, agarobiose]
Vmax [1]: 3.1 × 10^−1 U/mg protein | kcat [1]: 0.26 s⁻¹

[Ca+2] [Ca^2+]
Relative enzymatic activity (%) (Bgl1B protein): 82.0 ± 1.5%

OC[C@H]1O[C@@H](O[C@H]2[C@H](O)[C@@H](O)C(O)O[C@@H]2CO)[C@H](O)[C@@H](O)[C@@H]1O (some centres unmarked) [Cellobiose, cellobiose]
Km (Novozyme 188): 3.4 mM | Vmax (Novozyme 188): 3.9 × 10^0 U/mg protein | kcat (Novozyme 188): 7.8 × 10^0 s^−1 | Vmax [1]: 1.6 × 10^1 U/mg protein | kcat [1]: 13 s⁻¹

[Co+2] [Co^2+]
influence on enzymatic activity (Bgl1B protein): does not have a great influence; also recorded: did not have a great influence | Relative enzymatic activity (%) (Bgl1B protein): 95.7 ± 1.6%

[Cu+2] [Cu^2+]
Relative enzymatic activity (%) (Bgl1B protein): 0.0 ± 0.0%

[Fe+2] [Fe^2+]
Relative enzymatic activity (%) (Bgl1B protein): 8.2 ± 0.3%

OC[C@H]1O[C@@H](OC[C@H]2OC(O)[C@H](O)[C@@H](O)[C@@H]2O)[C@H](O)[C@@H](O)[C@@H]1O (some centres unmarked) [Gentiobiose, gentiobiose]
Vmax [1]: 1.1 × 10^0 U/mg protein | kcat [1]: 0.88 s⁻¹

OC[C@H]1O[C@@H](O[C@H]2[C@H](O)[C@@H](O)C(O)O[C@@H]2CO)[C@H](O)[C@@H](O)[C@H]1O (some centres unmarked) [Lactose, lactose]
Vmax [1]: 1.0 × 10^0 U/mg protein | kcat [1]: 0.83 s⁻¹

OC[C@H]1O[C@@H](O[C@H]2[C@H](O)[C@@H](CO)OC(O)[C@@H]2O)[C@H](O)[C@@H](O)[C@@H]1O (some centres unmarked) [Laminaribiose, laminaribiose]
Km (Novozyme 188): 2.5 mM | Vmax (Novozyme 188): 4.2 × 10^−1 U/mg protein | kcat (Novozyme 188): 0.85 s⁻¹ | Vmax, fold greater than Novozyme 188 ([1]; Bgl1B compared to Novozyme 188): 259 fold | catalytic efficiency, fold greater than Novozyme 188 ([1]; Bgl1B compared to Novozyme 188): 108 fold | kcat, fold greater than Novozyme 188 ([1]; Bgl1B compared to Novozyme 188): 108 fold | Vmax [1]: 1.1 × 10^2 U/mg protein | kcat [1]: 91 s⁻¹

[Mg+2] [Mg^2+]
influence on enzymatic activity (Bgl1B protein): does not have a great influence; also recorded: did not have a great influence | Relative enzymatic activity (%) (Bgl1B protein): 98.9 ± 2.3%

[Mn+2] [Mn^2+]
Relative enzymatic activity (%) (Bgl1B protein): 52.6 ± 2.1% | inhibits enzymatic activity by (Bgl1B protein; metal ion, summary statement): about 50%

[Ni+2] [Ni^2+]
influence on enzymatic activity (Bgl1B protein): does not have a great influence; also recorded: did not have a great influence | Relative enzymatic activity (%) (Bgl1B protein): 90.3 ± 2.7%

B1: Saccharophagus degradans 2-40^T β-glucosidase Bgl1B, recombinant (6 histidine residues at C-terminus), SEQ ID NO: 1 (nucleotide SEQ ID NO: 2) (Saccharophagus … (protein)
chain: MNRLTLPPSSRLRSKEFTFGVATSSYQIEGGIDSRLPCNWDTFCEQPNTIIDNTNGAIACDHINRWQDDIELIANLGVDAYRFSIAWGRVINLDGSLNNEGVTFYKNILTKLREKNLKAYITLYHWDLPQHLEDAGGWLNRDTAYKFRDYVNLITQALDDDVFCYTTLNEPFCSAYLGYEIGVHAPGIKDLASGRKAAHHLLLAHGLAMQVLRKNCPNSLSGIVLNMSPCYAGSNAQADIDAAKRADDLLFQWYAQPLLTGCYPDAINSLPDNAKPPICEGDMALISQPLDYLGLNYYTRAVFFADGNGGFTEQVPEGVELTDMGWEVYPQGLTDLLIDLNQRYTLPPLLITENGAAMVDELVNGEVNDIARINYFQTHLQAVHNAIEQGVDVRGYFAWSLMDNFEWALGYSKRFGITYVDYQTQKRTLKASGHAFAEFVSSRS
Km [2]: 20 mM | Km [3]: 13 mM | Km [4]: 69 mM | Km [5]: 0.99 mM | Km [6]: 20 mM
